Source: patent EP3828160A1, “TREPROSTINIL DERIVATIVE COMPOUNDS AND METHODS OF USING SAME” (Corsair Pharma, Inc., priority 2014, dated 2016)

Experiments:
Assay type in all cases: in vitro ADME
[1] = Human plasma stability assay (Test 2); conditions: 0.5 uM test compound, 37°C, up to 120 minutes, heparinated human plasma, read-out: Test 2 T1/2
Description: (§1) Four assays on compounds were carried out by the following methods with the results shown in Table I. • (Test 1) Human liver microsomal stability assay was conducted by incubating 0.5 uM test compounds at 37°C for up to 45 minutes in 50 mM of potassium phosphate buffer (pH 7.4) containing 0.5 mg of microsomal protein and 50 µL of NADPH generating system (7.8 mg of glucose 6-phosphate, 1.7 mg of NADPH and 6 U of glucose 6-phosphate dehydrogenase per mL in 2% w/v of sodium bicarbonate). At 0, 5, 15, 30 and 45 min., an aliquot was taken, quenched with internal standard containing stop solution. No co-factor controls at 45 minutes were also prepared. After incubation, the samples were analyzed by LC-MS/MS. Peak area ratios of analyte to internal standard were used to calculate the intrinsic clearance. The intrinsic clearance (CLint) was determined from the first order elimination constant by non-linear regression. Formation of the active drug Compound A over the time course was also monitored by LC-MS/MS analysis. • (Test 2) Human plasma stability assay was conducted by incubating 0.5 uM test compounds at 37°C for up to 120 minutes in heparinated human plasma. At 0, 5, 15, 30, 60 and 120 […] min., an aliquot was taken, quenched with internal standard containing stop solution. After incubation, the samples were analyzed by LC-MS/MS. Peak area ratios of analyte to internal standard were used to calculate the half-life. Formation of the active drug Compound A over the time course was also monitored by LC-MS/MS analysis. • (Test 3) Human skin homogenate stability assay was conducted in a similar way as the human liver microsomal stability assay, by incubating 0.5 uM test compounds at 37°C for up to 45 minutes in 50 mM of potassium phosphate buffer (pH 7.4) containing 0.5 mg of human skin homogenate protein and 50 µL of NADPH generating system (7.8 mg of glucose 6-phosphate, 1.7 mg of NADPH and 6 U of glucose 6-phosphate dehydrogenase per mL in 2% w/v of sodium bicarbonate). At 0, 5, 15, 30 and 45 min., an aliquot was taken, quenched with internal standard containing stop solution. No co-factor controls at 45 minutes were also prepared. After incubation, the samples were analyzed by LC-MS/MS. Peak area ratios of analyte to internal standard were used to calculate the intrinsic clearance. The intrinsic clearance (CLint) was determined from the first order elimination constant by non-linear regression. Formation of the active drug Compound A over the time course was also monitored by LC-MS/MS analysis. • (Test 4) Human hepatocyte stability assay was conducted by incubating 0.5 uM test compound at 37°C for up to 240 minutes. Cryopreserved human hepatocytes were obtained from Celsis IVT (Baltimore, Maryland). Cells were thawed according to vendor's instructions and were suspended in William's Medium E to 0.5 million cells/mL. Test compounds were spiked into the cell suspension to initiate the reactions. At 0, 10,30,60, 120 and 240 min., an aliquot was taken, quenched with internal standard containing stop solution. After incubation, the samples were analyzed by LC-MS/MS. Peak area ratios of analyte to internal standard were used to calculate the intrinsic clearance. The intrinsic clearance (CLint) was determined from the first order elimination constant by non-linear regression. Formation of the active drug Compound A over the time course was also monitored by LC-MS/MS analysis.

[2] = Human liver microsomal stability assay (Test 1); conditions: liver microsomes, 0.5 uM test compound, 37°C, up to 45 minutes, 0.5 mg microsomal protein, NADPH generating system, pH 7.4, read-out: Test 1 T1/2
Description: as §1

[3] = Human skin homogenate stability assay (Test 3); conditions: 0.5 uM test compound, 37°C, up to 45 minutes, 0.5 mg human skin homogenate protein, NADPH generating system, pH 7.4, read-out: Test 3 T1/2
Description: as §1

half-life at 0.5 uM [1] [min]	half-life at 0.5 uM [2] [min]	half-life at 0.5 uM [3] [min]	Compound
< 15	< 15		CCCCCC(O)CCC1C(O)CC2Cc3c(cccc3OCC(=O)OCC3CC3)CC21 (stereo not shown) [Compound 1, [2-Hydroxy-1-(3-hydroxy-octyl)-2,3,3a,4,9,9a-hexahydro-1H-cyclopenta[b]naphthalen-5-yloxy]-acetic acid cyclopropylmethyl ester]
< 15	< 15		CCCCCC(O)CCC1C(O)CC2Cc3c(cccc3OCC(=O)OCCCF)CC21 (stereo not shown) [Compound 4, [2-Hydroxy-1-(3-hydroxy-octyl)-2,3,3a,4,9,9a-hexahydro-1H-cyclopenta[b]naphthalen-5-yloxy]-acetic acid 3-fluoro-propyl ester]
< 15	< 15		CCCCCC(O)CCC1C(O)CC2Cc3c(cccc3OCC(=O)OC3CCOC3)CC21 (stereo not shown) [Compound 5, [2-Hydroxy-1-(3-hydroxy-octyl)-2,3,3a,4,9,9a-hexahydro-1H-cyclopenta[b]naphthalen-5-yloxy]-acetic acid tetrahydro-furan-3-yl ester]
	31 to 60		CCCCCC(O)CCC1C(O)CC2Cc3c(cccc3OCC(=O)NCCN)CC21 (stereo not shown) [Compound 8, N-(2-Amino-ethyl)-2-[2-hydroxy-1-(3-hydroxy-octyl)-2,3,3a,4,9,9a-hexahydro-1H-cyclopenta[b]naphthalen-5-yloxy]-acetamide]
	< 15		CCCCCC(O)CCC1C(O)CC2Cc3c(cccc3OCC(=O)OCCO)CC21 (stereo not shown) [Compound 9, [2-Hydroxy-1-(3-hydroxy-octyl)-2,3,3a,4,9,9a-hexahydro-1H-cyclopenta[b]naphthalen-5-yloxy]-acetic acid 2-hydroxy-ethyl ester]
	< 15		CCCCCC(O)CCC1C(O)CC2Cc3c(cccc3OCC(=O)OCCOC)CC21 (stereo not shown) [Compound 10, [2-Hydroxy-1-(3-hydroxy-octyl)-2,3,3a,4,9,9a-hexahydro-1H-cyclopenta[b]naphthalen-5-yloxy]-acetic acid 2-methoxy-ethyl ester]
> 60	< 15		CCCCCC(O)CCC1C(O)CC2Cc3c(cccc3OCC(=O)NCCCO)CC21 (stereo not shown) [Compound 11, 2-[2-Hydroxy-1-(3-hydroxy-octyl)-2,3,3a,4,9,9a-hexahydro-1H-cyclopenta[b]naphthalen-5-yloxy]-N-(3-hydroxy-propyl)-acetamide]
> 60	< 15		CCCCCC(O)CCC1C(O)CC2Cc3c(cccc3OCC(=O)NCC(=O)OC)CC21 (stereo not shown) [Compound 12, {2-[2-Hydroxy-1-(3-hydroxy-octyl)-2,3,3a,4,9,9a-hexahydro-1H-cyclopenta[b]naphthalen-5-yloxy]-acetylamino}-acetic acid methyl ester]
< 15	< 15	< 15	CCCCCC(O)CCC1C(O)CC2Cc3c(cccc3OCC(=O)OC)CC21 (stereo not shown) [Compound 15, [2-Hydroxy-1-(3-hydroxy-octyl)-2,3,3a,4,9,9a-hexahydro-1H-cyclopenta[b]naphthalen-5-yloxy]-acetic acid methyl ester]
15 to 30	< 15	15 to 30	CCCCCC(O)CCC1C(O)CC2Cc3c(cccc3OCC(=O)OCC(C)(C)C)CC21 (stereo not shown) [Compound 16, [2-Hydroxy-1-(3-hydroxy-octyl)-2,3,3a,4,9,9a-hexahydro-1H-cyclopenta[b]naphthalen-5-yloxy]-acetic acid 2,2-dimethyl-propyl ester]
31 to 60	< 15	15 to 30	CCCCCC(O)CCC1C(O)CC2Cc3c(cccc3OCC(=O)OC(C)C(C)C)CC21 (stereo not shown) [Compound 17, [2-Hydroxy-1-(3-hydroxy-octyl)-2,3,3a,4,9,9a-hexahydro-1H-cyclopenta[b]naphthalen-5-yloxy]-acetic acid 1,2-dimethyl-propyl ester]
> 60	< 15	> 60	CCCCCC(O)CCC1C(O)CC2Cc3c(cccc3OCC(=O)OC(C)C(C)(C)C)CC21 (stereo not shown) [Compound 18, [2-Hydroxy-1-(3-hydroxy-octyl)-2,3,3a,4,9,9a-hexahydro-1H-cyclopenta[b]naphthalen-5-yloxy]-acetic acid 1,2,2-trimethyl-propyl ester]
31 to 60	< 15	15 to 30	CCCCCC(O)CCC1C(O)CC2Cc3c(cccc3OCC(=O)OC3CC4CCC3C4)CC21 (stereo not shown) [Compound 19, [2-Hydroxy-1-(3-hydroxy-octyl)-2,3,3a,4,9,9a-hexahydro-1H-cyclopenta[b]naphthalen-5-yloxy]-acetic acid bicyclo[2.2.1]hept-2-yl ester]
31 to 60	< 15	< 15	CCCCCC(O)CCC1C(O)CC2Cc3c(cccc3OCC(=O)OC(C)C)CC21 (stereo not shown) [Compound 20, [2-Hydroxy-1-(3-hydroxy-octyl)-2,3,3a,4,9,9a-hexahydro-1H-cyclopenta[b]naphthalen-5-yloxy]-acetic acid isopropyl ester]
> 60	< 15		CCCCCC(O)CCC1C(O)CC2Cc3c(cccc3OCC(=O)NCC(F)(F)C(F)(F)F)CC21 (stereo not shown) [Compound 21, 2-[2-Hydroxy-1-(3-hydroxy-octyl)-2,3,3a,4,9,9a-hexahydro-1H-cyclopenta[b]naphthalen-5-yloxy]-N-(2,2,3,3,3-pentafluoro-propyl)-acetamide]
> 60	< 15	> 60	CCCCCC(O)CCC1C(OC(=O)CCCC)CC2Cc3c(cccc3OCC(=O)OC)CC21 (stereo not shown) [Compound 22, Pentanoic acid 1-(3-hydroxy-octyl)-5-methoxycarbonylmethoxy-2,3,3a,4,9,9a-hexahydro-1H-cyclopenta[b]naphthalen-2-yl ester]
> 60	< 15		CCCCCC(O)CCC1C(OC(=O)CC(C)C)CC2Cc3c(cccc3OCC(=O)OC)CC21 (stereo not shown) [Compound 23, 3-Methyl-butyric acid 1-(3-hydroxy-octyl)-5-methoxycarbonylmethoxy-2,3,3a,4,9,9a-hexahydro-1H-cyclopenta[b]naphthalen-2-yl ester]
> 60	< 15		CCCCCC(O)CCC1C(OC(=O)C2CC2)CC2Cc3c(cccc3OCC(=O)OC)CC21 (stereo not shown) [Compound 24, Cyclopropanecarboxylic acid 1-(3-hydroxy-octyl)-5-methoxycarbonylmethoxy-2,3,3a,4,9,9a-hexahydro-1H-cyclopenta[b]naphthalen-2-yl ester]
> 60	< 15		CCCCCC(O)CCC1C(OC(=O)CCC(=O)OCC)CC2Cc3c(cccc3OCC(=O)OC)CC21 (stereo not shown) [Compound 27, Succinic acid ethyl ester 1-(3-hydroxy-octyl)-5-methoxycarbonylmethoxy-2,3,3a,4,9,9a-hexahydro-1H-cyclopenta[b]naphthalen-2-yl ester]
15 to 30	< 15		CCCCCC(O)CCC1C(O)CC2Cc3c(cccc3OCC(=O)OC(C)(C)C)CC21 (stereo not shown) [Compound 28, [2-Hydroxy-1-(3-hydroxy-octyl)-2,3,3a,4,9,9a-hexahydro-1H-cyclopenta[b]naphthalen-5-yloxy]-acetic acid tert-butyl ester]

Compound	half-life at 0.5 uM [1] [min]	half-life at 0.5 uM [2] [min]	half-life at 0.5 uM [3] [min]
CCCCCC(O)CCC1C(O)CC2Cc3c(cccc3OCC(=O)OC(C)C(=O)OC)CC21 (stereo not shown) [Compound 6, 2-{2-[2-Hydroxy-1-(3-hydroxy-octyl)-2,3,3a,4,9,9a-hexahydro-1H-cyclopenta[b]naphthalen-5-yloxy]-acetoxy}-propionic acid methyl ester]	< 15	< 15	
